Here are results for 19 molecules from US11407736B2 (priority 2019, dated 2022).

Like-named read-outs stand apart in the source and are kept apart here.

In one experiment the target is RIPK1 (Homo sapiens (Human), UniProt Q13546). The experiment is described as follows: RIPK1 ADP-Glo biochemical kinase assay. As for the experimental part:
The final reaction volume was 5.0ul.
Adding 5 μl of ADP-Glo™ terminated the reaction.
(ADP-Glo first removes unused ATP, then detects ADP through luciferase.)

Another experiment deals with U937 cells. Kind of experiment: U937 cell necroptosis assay (TNFa + zVAD, CellTiter-Glo). The format is cell-based, human. The method, boiled down: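 Human U937 and murine L929 cells in RPMI 1640/10% FBS were pre-incubated 1 h at 37 °C with serially diluted compound plus zVAD-fmk (U937 plated with 60 uM, L929 medium with 40 uM), then stimulated with 2 ng/mL TNFa (final). Viability read by CellTiter-Glo luminescence after 18 h.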
For orientation: ATP-based viability assays read luminescence as a measure of living cells.

The subject of a further experiment is L929 cells. The experiment is described as follows: L929 cell necroptosis assay (TNFa + zVAD, CellTiter-Glo). The format is cell-based, murine. The method, boiled down: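 Murine L929 cells, plated 18 h beforehand at 10K cells/well in RPMI 1640 with 10% FBS, were switched to medium containing 40 uM zVAD-fmk and given compound from 4-fold serial dilutions. Viability after 18 h of TNFa stimulation at 37° C was read by CellTiter-Glo luminescence.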

The mark [1] stands for this setting: read-out: RIPK1 ADP-Glo Kinase (IC50).
The mark [2] stands for this setting: Homo sapiens, U-937, U937 cells, TNFa + zVAD, read-out: U937 Zvad TNF CTG Recovery, U937, TNFa + zVAD (IC50).
Where [3] appears, read: Mus musculus, L929, L929 cells, TNFa + zVAD, read-out: L929-CTG-recovery, L929, TNFa + zVAD (IC50).

RIPK1, sequence (Q13546 whole entry, species assumed): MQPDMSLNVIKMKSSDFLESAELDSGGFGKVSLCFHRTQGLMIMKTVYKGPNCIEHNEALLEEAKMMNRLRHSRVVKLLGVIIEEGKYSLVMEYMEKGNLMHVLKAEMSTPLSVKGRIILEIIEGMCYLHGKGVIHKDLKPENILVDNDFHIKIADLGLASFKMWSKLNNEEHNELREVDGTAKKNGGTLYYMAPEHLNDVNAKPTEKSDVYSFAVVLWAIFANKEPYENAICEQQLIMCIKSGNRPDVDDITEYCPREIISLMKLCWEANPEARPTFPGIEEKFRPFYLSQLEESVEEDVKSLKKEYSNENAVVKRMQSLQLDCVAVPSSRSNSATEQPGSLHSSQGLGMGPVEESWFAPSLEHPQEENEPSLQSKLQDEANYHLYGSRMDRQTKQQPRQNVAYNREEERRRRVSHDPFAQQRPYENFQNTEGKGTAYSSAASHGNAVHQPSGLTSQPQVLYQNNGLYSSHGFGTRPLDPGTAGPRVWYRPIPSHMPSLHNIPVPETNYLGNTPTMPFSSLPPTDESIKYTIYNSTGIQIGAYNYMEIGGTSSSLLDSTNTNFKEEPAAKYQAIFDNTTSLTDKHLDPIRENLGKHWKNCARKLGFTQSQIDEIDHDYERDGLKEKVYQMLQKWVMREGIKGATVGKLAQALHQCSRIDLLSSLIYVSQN

Regarding `CN1C(=O)[C@@H](NC(=O)c2cc(Oc3cccc(C#N)c3)ccn2)COc2cc(C#CC(C)(C)O)ccc21` [II-21, (S)-4-(3-cyanophenoxy)-N-(8-(3-hydroxy-3-methylbut-1-yn-1-yl)-5-methyl-4-oxo-2,3,4,5-tetrahydrobenzo[b][1,4]oxazepin-3-yl)picolinamide], the IC50 (commonly the concentration at which inhibition is half-maximal) at RIPK1 (setting [1]) was 40.9 nM; in the experiment with U937 cells (setting [2]), 14.3 nM; with L929 cells (setting [3]), 3440 nM.

As for `CN1C(=O)[C@@H](NC(=O)n2cc(Cc3ccc(F)cc3)cn2)COc2ccc(C#CC(C)(C)N)cc21` [Compound I-226, (S)—N-(7-(3-amino-3-methylbut-1-yn-1-yl)-5-methyl-4-oxo-2,3,4,5-tetrahydrobenzo[b][1,4]oxazepin-3-yl)-4-(4-fluorobenzyl)-1H-pyrazole-1-carboxamide], the results for the IC50 on RIPK1 (setting [1]), in the experiment on U937 cells (setting [2]) and with L929 cells (setting [3]) were 33 nM, 17 nM and 1770 nM, respectively.

In the case of `CN1C(=O)[C@@H](NC(=O)c2ncn(Cc3ccccc3)n2)COc2cc(C#CC(C)(C)O)ccc21` [Compound I-62, (S)-1-benzyl-N-(8-(3-hydroxy-3-methylbut-1-yn-1-yl)-5-methyl-4-oxo-2,3,4,5-tetrahydrobenzo[b][1,4]oxazepin-3-yl)-1H-1,2,4-triazole-3-carboxamide], the figures for the IC50 at RIPK1 (setting [1]), in the experiment with U937 cells (setting [2]) and in the experiment with L929 cells (setting [3]) were 35.5 nM, 2 nM and 0.7 nM, respectively.

`COC1(C#Cc2ccc3c(c2)N(C)C(=O)[C@@H](NC(=O)c2cc(Oc4ccccc4)ccn2)CO3)CNC1` [Compound I-154, (S)—N-(7-((3-methoxyazetidin-3-yl)ethynyl)-5-methyl-4-oxo-2,3,4,5-tetrahydrobenzo[b][1,4]oxazepin-3-yl)-4-phenoxypicolinamide]: the IC50 came out at 26.7 nM on RIPK1 (setting [1]), 3.5 nM in the experiment on U937 cells (setting [2]) and 656 nM with L929 cells (setting [3]).

Take `CN1CC(O)(C#Cc2ccc3c(c2)N(C)C(=O)[C@@H](NC(=O)c2cc(Oc4ccccc4)ccn2)CO3)C1` [Compound I-137, (S)—N-(7-((3-hydroxy-1-methylazetidin-3-yl)ethynyl)-5-methyl-4-oxo-2,3,4,5-tetrahydrobenzo[b][1,4]oxazepin-3-yl)-4-phenoxypicolinamide]: the IC50 at RIPK1 (setting [1]) amounted to 23.6 nM; in the experiment on U937 cells (Homo sapiens, U-937, read-out: U937 Zvad TNF CTG Recovery, U937, TNFa + zVAD (IC50), U937 cells, TNFa + zVAD) it was 5 nM; in the experiment on L929 cells (Mus musculus, L929, read-out: L929-CTG-recovery, L929, TNFa + zVAD (IC50), L929 cells, TNFa + zVAD) it was 333 nM.

For `CN1C(=O)[C@@H](NC(=O)c2cc(Oc3ccccc3)ccn2)COc2ccc(C#CC(C)(C)N3CCOCC3)cc21` [Compound I-206, (S)—N-(5-Methyl-7-(3-methyl-3-morpholinobut-1-yn-1-yl)-4-oxo-2,3,4,5-tetrahydrobenzo[b][1,4]oxazepin-3-yl)-4-phenoxypicolinamide], the IC50 was found to be 55.6 nM on RIPK1, 0.6 nM in the experiment with U937 cells (setting [2]) and 41.5 nM with L929 cells (setting [3]).

In the case of `CN1C(=O)[C@@H](NC(=O)n2cc(Cc3ccc(F)cc3)cn2)COc2ccc(C#CC(C)(C)O)cc21` [Compound I-218, (S)-4-(4-fluorobenzyl)-N-(7-(3-hydroxy-3-methylbut-1-yn-1-yl)-5-methyl-4-oxo-2,3,4,5-tetrahydrobenzo[b][1,4]oxazepin-3-yl)-1H-pyrazole-1-carboxamide], the IC50 on RIPK1 (setting [1]) amounted to 24.5 nM; in the experiment on U937 cells (setting [2]) it was 2.6 nM; in the experiment on L929 cells (setting [3]) it was 75.8 nM.

With `CN1C(=O)[C@@H](NC(=O)c2n[nH]c(Cc3ccccc3)n2)COc2ccc(C#Cc3ccc4c(c3)CNCC4)cc21` [Compound I-88, (S)-5-benzyl-N-(5-methyl-4-oxo-7-((1,2,3,4-tetrahydroisoquinolin-7-yl)ethynyl)-2,3,4,5-tetrahydrobenzo[b][1,4]oxazepin-3-yl)-1H-1,2,4-triazole-3-carboxamide], the IC50 on RIPK1 (setting [1]) is 73.8 nM; in the experiment on U937 cells (setting [2]) it was 0.7 nM; in the experiment on L929 cells (setting [3]) it was 0.0976 nM.

For the molecule `CN1C(=O)[C@@H](NC(=O)c2n[nH]c(Cc3ccccc3)n2)COc2ccc(CCCCOCc3ccccn3)cc21` [Compound I-16, (S)-5-benzyl-N-(5-methyl-4-oxo-7-(4-(pyridin-2-ylmethoxy)butyl)-2,3,4,5-tetrahydrobenzo[b][1,4]oxazepin-3-yl)-1H-1,2,4-triazole-3-carboxamide], the figures for the IC50 on RIPK1 (setting [1]), with U937 cells (setting [2]) and in the experiment on L929 cells (setting [3]) were 1630 nM, 51.7 nM and 5670 nM, respectively.

For `CN1C(=O)[C@@H](NC(=O)c2cc(Oc3ccccc3)ccn2)COc2cc(C#CC(C)(C)O)ccc21` [Compound I-64, (S)—N-(8-(3-hydroxy-3-methylbut-1-yn-1-yl)-5-methyl-4-oxo-2,3,4,5-tetrahydrobenzo[b][1,4]oxazepin-3-yl)-4-phenoxypicolinamide], the results for the IC50 at RIPK1 (setting [1]), in the experiment on U937 cells (setting [2]) and in the experiment on L929 cells (setting [3]) were 19 nM, 0.5 nM and 0.1 nM, respectively.

Consider `CN1C(=O)[C@@H](NC(=O)c2ncn(Cc3c(Cl)cccc3Cl)n2)COc2ccc(CN3CCN(c4ccncc4)CC3)cc21` [Compound I-21, (S)-1-(2,6-dichlorobenzyl)-N-(5-methyl-4-oxo-7-((4-(pyridin-4-yl)piperazin-1-yl)methyl)-2,3,4,5-tetrahydrobenzo[b][1,4]oxazepin-3-yl)-1H-1,2,4-triazole-3-carboxamide], for which the IC50 was 77 nM at RIPK1 (setting [1]), 2.5 nM in the experiment on U937 cells (setting [2]) and 1310 nM in the experiment on L929 cells (setting [3]).

As to `CN1C(=O)[C@@H](NC(=O)c2n[nH]c(Cc3ccccc3)n2)COc2ccc(C#C[Si](C)(C)C)cc21` [Compound I-97, (S)-5-benzyl-N-(5-methyl-4-oxo-7-((trimethylsilyl)ethynyl)-2,3,4,5-drobenzo[b][1,4]oxazepin-3-yl)-1H-1,2,4-triazole-3-carboxamide], the IC50 on RIPK1 (setting [1]) is 85.8 nM; in the experiment with U937 cells (U937 cells, TNFa + zVAD, read-out: U937 Zvad TNF CTG Recovery, U937, TNFa + zVAD (IC50)), 1.7 nM; in the experiment with L929 cells (L929 cells, TNFa + zVAD, read-out: L929-CTG-recovery, L929, TNFa + zVAD (IC50)), 0.9 nM.

As to `CCN(C(=O)c1n[nH]c(Cc2ccccc2)n1)[C@H]1COc2ccc(C#CC(C)(C)O)cc2N(C)C1=O` [Compound I-86, (S)-5-benzyl-N-ethyl-N-(7-(3-hydroxy-3-methylbut-1-yn-1-yl)-5-methyl-4-oxo-2,3,4,5-tetrahydrobenzo[b][1,4]oxazepin-3-yl)-1H-1,2,4-triazole-3-carboxamide], the IC50 was 616 nM at RIPK1 (setting [1]), 4.1 nM in the experiment on U937 cells (setting [2]) and 0.6 nM with L929 cells (setting [3]).

Regarding `CN1C(=O)[C@@H](NC(=O)c2cc(Oc3ccccc3)ccn2)COc2ccc(C#CC(C)(C)N3CCCC3)cc21` [Compound I-210, (S)—N-(5-Methyl-7-(3-methyl-3-(pyrrolidin-1-yl)but-1-yn-1-yl)-4-oxo-2,3,4,5-tetrahydrobenzo[b][1,4]oxazepin-3-yl)-4-phenoxypicolinamide], the figures for the IC50 at RIPK1 (setting [1]), in the experiment on U937 cells (setting [2]) and in the experiment on L929 cells (setting [3]) were 28.6 nM, 4.2 nM and 470 nM, respectively.

In the case of `CN1C(=O)[C@@H](NC(=O)c2cc(Oc3ccccc3)ccn2)COc2ccc(C#CC3(O)CCC3)cc21` [Compound I-120, (S)—N-(7-((1-hydroxycyclobutyl)ethynyl)-5-methyl-4-oxo-2,3,4,5-tetrahydrobenzo[b][1,4]oxazepin-3-yl)-4-phenoxypicolinamide], the IC50 on RIPK1 (setting [1]) came out at 29.6 nM; in the experiment with U937 cells (setting [2]), 0.5 nM; in the experiment on L929 cells (setting [3]), 61.5 nM.

For `CN1C(=O)[C@@H](NC(=O)c2n[nH]c(Cc3ccccc3F)n2)COc2ccc(C#CC(C)(C)C)cc21` [Compound I-89, (S)—N-(7-(3,3-dimethylbut-1-yn-1-yl)-5-methyl-4-oxo-2,3,4,5-tetrahydrobenzo[b][1,4]oxazepin-3-yl)-5-(2-fluorobenzyl)-1H-1,2,4-triazole-3-carboxamide], the figures for the IC50 at RIPK1 (setting [1]), in the experiment on U937 cells (setting [2]) and in the experiment on L929 cells (setting [3]) were 52.7 nM, 4.5 nM and 0.7 nM, respectively.

For `CC(=O)N1CC(F)(C#Cc2ccc3c(c2)N(C)C(=O)[C@@H](NC(=O)c2cc(Oc4ccccc4)ccn2)CO3)C1` [Compound I-191, (S)—N-(7-((1-acetyl-3-fluoroazetidin-3-yl)ethynyl)-5-methyl-4-oxo-2,3,4,5-tetrahydrobenzo[b][1,4]oxazepin-3-yl)-4-phenoxypicolinamide], the IC50 is 19.7 nM on RIPK1 (setting [1]), 0.3 nM in the experiment on U937 cells (setting [2]) and 21.5 nM in the experiment with L929 cells (setting [3]).

With `CCOC(=O)CCc1ccc2c(c1)N(C)C(=O)[C@@H](NC(=O)c1ncn(Cc3c(Cl)cccc3Cl)n1)CO2` [Compound I-8, Ethyl (S)-3-(3-(1-(2,6-dichlorobenzyl)-1H-1,2,4-triazole-3-carboxamido)-5-methyl-4-oxo-2,3,4,5-tetrahydrobenzo[b][1,4]oxazepin-7-yl)propanoate], the IC50 was found to be 52.9 nM on RIPK1 (setting [1]), 1.4 nM in the experiment on U937 cells (setting [2]) and 9.2 nM in the experiment with L929 cells (setting [3]).

With `CN1C(=O)[C@@H](NC(=O)c2ncn(Cc3ccccc3)n2)COc2ccc(C#CCCOc3ccc4cccnc4c3)cc21` [Compound I-42, (S)-1-benzyl-N-(5-methyl-4-oxo-7-(4-(quinolin-7-yloxy)but-1-yn-1-yl)-2,3,4,5-tetrahydrobenzo[b][1,4]oxazepin-3-yl)-1H-1,2,4-triazole-3-carboxamide], the IC50 on RIPK1 (setting [1]) turned out to be 47.7 nM; with U937 cells (setting [2]) it was 3.3 nM; in the experiment on L929 cells (setting [3]), 1.2 nM.
